# Assay results published in patent publication US20260158011A1 (Achieve Life Sciences, Inc., priority 2023, published 2026).
# Read-outs that look alike come from different tables or passages of the source.
# Tests used:
# [1] = test system: adults smoking 10+ cigarettes daily; details: for Serious AEs: ORCA-1, pooled cytisinicline arms (n = 203)
# Text: Table 13 summarizes the treatment emergent adverse events (TEAEs).
# [2] = test system: adults who smoked 10 cigarettes per day
# Procedure: Safety was assessed by measurement of vital signs and participant self-report of adverse events and concomitant medications on day 2 and at weekly visits during treatment from week 1 to 12 and through an additional 12-week follow-up. Hematology and chemistry laboratory tests were done at weeks 1, 6, and 12. Electrocardiograms were done at weeks 6 and 12. Clinically significant adverse events or abnormalities were followed until resolution or end of study.
# The study had two primary endpoints. […] Study success was defined as either primary endpoint meeting statistical criterion. The secondary outcome measures were verified continuous cigarette abstinence to week 24 (weeks 3 to 24 for Arms B vs. A; weeks 9 to 24 for Arms C vs. A). A third secondary outcome measure compared the risk of relapse to smoking between weeks 6 and 24 among participants assigned to cytisinicline who achieved abstinence by week 6; these individuals were either switched to placebo at week 6 (Arm B) or continued cytisinicline to week 12 (Arm C). Other pre-specified endpoints included comparing the difference between arms in verified 7-day point-prevalence abstinence at each visit from week 2 through week 24 and assessing for evidence of effect modification for subsets defined by baseline attributes. To assess cigarette craving between groups, the Brief Questionnaire of Smoking Urges (QSU-brief) was administered at clinic visits on Day 0 and at Weeks 1 to 6 (4, 5). Safety outcomes included the incidence of treatment-emergent serious and non-serious adverse events during treatment with cytisinicline or placebo and clinically-significant changes in vital signs, laboratory tests or electrocardiograms.
# Analyses for the binary primary and secondary outcomes were based on exact analyses 2×2 tables stratified by clinical site. Missed assessments of primary and secondary endpoints were imputed as non-success, thereby enabling analyses following the intent-to-treat principle. The Hochberg procedure was used to control for multiplicity (6). A target sample of 750 participants (n=250 per arm) was computed and verified using simulations to provide 96% power for specifications of an overall one-sided 0.025 type I error probability and success probabilities of 7% for placebo and 19% for cytisinicline. Sensitivity analyses included assessments of effect modification related to subsets defined by baseline attributes using logistic and cumulative logit models. Longitudinal analyses used Mixed Model for Repeated Measures methodology (7). Safety analyses included all randomized participants who received at least one dose of study drug. Analyses were conducted by BB.
# [3] = 1.5 mg downward titration (n = 51)
# [4] = 3.0 mg downward titration (n = 50)
# [5] = pooled cytisinicline arms (n = 203)
# [6] = Arm B Cytisinicline 6 weeks + placebo 6 weeks, N = 269
# [7] = Arm B Cytisinicline 6 weeks + placebo 6 weeks, of 459 events
# [8] = Arm C Cytisinicline 12 weeks, N = 270
# [9] = Arm C Cytisinicline 12 weeks, of 494 events
smiles,measurement,setting,value
"O=c1cccc2n1C[C@@H]1CNC[C@H]2C1 [cytisine, (−)-Cytisine]",TEAE: Abnormal dreams,[1]; 1.5 mg TID (n = 52),4 (8%) n (%)
same,TEAE: At least 1 AE,[1]; 1.5 mg TID (n = 52),20 (39%) n (%)
same,TEAE: Constipation,[1]; 1.5 mg TID (n = 52),1 (2%) n (%)
same,TEAE: Fatigue,[1]; 1.5 mg TID (n = 52),3 (6%) n (%)
same,TEAE: Headache,[1]; 1.5 mg TID (n = 52),6 (12%) n (%)
same,TEAE: Insomnia,[1]; 1.5 mg TID (n = 52),4 (8%) n (%)
same,TEAE: Nausea,[1]; 1.5 mg TID (n = 52),1 (2%) n (%)
same,TEAE: URTI,[1]; 1.5 mg TID (n = 52),5 (10%) n (%)
same,TEAE: Abnormal dreams,[1]; [3],4 (8%) n (%)
same,TEAE: At least 1 AE,[1]; [3],29 (57%) n (%)
same,TEAE: Fatigue,[1]; [3],1 (2%) n (%)
same,TEAE: Headache,[1]; [3],1 (2%) n (%)
same,TEAE: Insomnia,[1]; [3],3 (6%) n (%)
same,TEAE: Nausea,[1]; [3],5 (10%) n (%)
same,TEAE: URTI,[1]; [3],3 (6%) n (%)
same,TEAE: Abnormal dreams,[1]; 3.0 mg TID (n = 50),3 (6%) n (%)
same,TEAE: At least 1 AE,[1]; 3.0 mg TID (n = 50),21 (42%) n (%)
same,TEAE: Constipation,[1]; 3.0 mg TID (n = 50),3 (6%) n (%)
same,TEAE: Fatigue,[1]; 3.0 mg TID (n = 50),1 (2%) n (%)
same,TEAE: Headache,[1]; 3.0 mg TID (n = 50),2 (4%) n (%)
same,TEAE: Insomnia,[1]; 3.0 mg TID (n = 50),3 (6%) n (%)
same,TEAE: Nausea,[1]; 3.0 mg TID (n = 50),3 (6%) n (%)
same,TEAE: URTI,[1]; 3.0 mg TID (n = 50),3 (6%) n (%)
same,TEAE: Abnormal dreams,[1]; [4],7 (14%) n (%)
same,TEAE: At least 1 AE,[1]; [4],23 (46%) n (%)
same,TEAE: Fatigue,[1]; [4],2 (4%) n (%)
same,TEAE: Headache,[1]; [4],1 (2%) n (%)
same,TEAE: Insomnia,[1]; [4],4 (8%) n (%)
same,TEAE: Nausea,[1]; [4],3 (6%) n (%)
same,TEAE: URTI,[1]; [4],2 (4%) n (%)
same,Serious AEs,[1],no serious or severe adverse events
same,Serious AEs,[1]; listed as Cytisinicline,0
same,TEAE: Abnormal dreams,[1]; [5],18 (9%) n (%)
same,TEAE: At least 1 AE,[1]; [5],93 (46%) n (%)
same,TEAE: Constipation,[1]; [5],4 (2%) n (%)
same,TEAE: Fatigue,[1]; [5],7 (3%) n (%)
same,TEAE: Headache,[1]; [5],10 (5%) n (%)
same,TEAE: Insomnia,[1]; [5],14 (7%) n (%)
same,TEAE: Nausea,[1]; [5],12 (6%) n (%)
same,TEAE: URTI,[1]; [5],13 (6%) n (%)
same,Treatment-emergent adverse events reported,[2]; 6-week cytisinicline arm,172 (63.9%) participants (%)
same,Treatment-emergent adverse events reported,[2]; 12-week cytisinicline arm,184 (68.2%) participants (%)
same,"OR for serious adverse events, cytisinicline versus placebo",[2]; 539 cytisinicline vs 270 placebo participants,3.08
same,Study drug discontinuation due to adverse events,[2]; Arm B,2.6%
same,Number of treatment emergent adverse events,[2]; [6],459
same,"Participants with Abnormal dreams (treatment-emergent adverse event), %",[2]; [6],8.2%
same,"Participants with Anxiety (treatment-emergent adverse event), %",[2]; [6],2.6%
same,"Participants with Constipation (treatment-emergent adverse event), %",[2]; [6],5.9%
same,"Participants with Diarrhea (treatment-emergent adverse event), %",[2]; [6],3.7%
same,"Participants with Headache (treatment-emergent adverse event), %",[2]; [6],6.7%
same,"Participants with Insomnia (treatment-emergent adverse event), %",[2]; [6],8.6%
same,"Participants with Nausea (treatment-emergent adverse event), %",[2]; [6],5.9%
same,"Participants with any serious adverse event, %",[2]; [6],3.7%
same,"Participants with any treatment emergent adverse event, %",[2]; [6],63.9%
same,"Participants with any treatment-related serious adverse event, %",[2]; [6],0%
same,"Treatment emergent adverse events, Mild, %",[2]; [7],63.2%
same,"Treatment emergent adverse events, Moderate, %",[2]; [7],32.2%
same,"Treatment emergent adverse events, Severe, %",[2]; [7],4.6%
same,Study drug discontinuation due to adverse events,[2]; Arm C,3.7%
same,Number of treatment emergent adverse events,[2]; [8],494
same,"Participants with Abnormal dreams (treatment-emergent adverse event), %",[2]; [8],7.8%
same,"Participants with Anxiety (treatment-emergent adverse event), %",[2]; [8],5.6%
same,"Participants with Constipation (treatment-emergent adverse event), %",[2]; [8],4.8%
same,"Participants with Diarrhea (treatment-emergent adverse event), %",[2]; [8],4.4%
same,"Participants with Headache (treatment-emergent adverse event), %",[2]; [8],7.8%
same,"Participants with Insomnia (treatment-emergent adverse event), %",[2]; [8],9.6%
same,"Participants with Nausea (treatment-emergent adverse event), %",[2]; [8],5.6%
same,"Participants with any serious adverse event, %",[2]; [8],3.0%
same,"Participants with any treatment emergent adverse event, %",[2]; [8],68.2%
same,"Participants with any treatment-related serious adverse event, %",[2]; [8],0%
same,"Treatment emergent adverse events, Mild, %",[2]; [9],61.3%
same,"Treatment emergent adverse events, Moderate, %",[2]; [9],36.0%
same,"Treatment emergent adverse events, Severe, %",[2]; [9],2.6%
same,Treatment-related SAEs,[2]; all arms,No SAE was judged to be treatment-related
same,Serious adverse events (SAEs),[2]; of 539 participants on cytisinicline,18 (3.3%) participants (%)
same,Study drug discontinuation due to adverse events,[2]; of 539 participants receiving cytisinicline (Arms B and C),17 (3.2%) participants (%)
